The record followed here is PubChem BioAssay AID791 (The Scripps Research Institute Molecular Screening Center, 2007).

Calls of active or inactive are those of the source.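 Rule for the calls: active = IC50 at or below 10 µM; inactive = IC50 above 10 µM.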 Where only a bound is given, the exact number is not on record here.

Chain of Rho-associated protein kinase 2 (Homo sapiens) (O75116 whole entry, looked up): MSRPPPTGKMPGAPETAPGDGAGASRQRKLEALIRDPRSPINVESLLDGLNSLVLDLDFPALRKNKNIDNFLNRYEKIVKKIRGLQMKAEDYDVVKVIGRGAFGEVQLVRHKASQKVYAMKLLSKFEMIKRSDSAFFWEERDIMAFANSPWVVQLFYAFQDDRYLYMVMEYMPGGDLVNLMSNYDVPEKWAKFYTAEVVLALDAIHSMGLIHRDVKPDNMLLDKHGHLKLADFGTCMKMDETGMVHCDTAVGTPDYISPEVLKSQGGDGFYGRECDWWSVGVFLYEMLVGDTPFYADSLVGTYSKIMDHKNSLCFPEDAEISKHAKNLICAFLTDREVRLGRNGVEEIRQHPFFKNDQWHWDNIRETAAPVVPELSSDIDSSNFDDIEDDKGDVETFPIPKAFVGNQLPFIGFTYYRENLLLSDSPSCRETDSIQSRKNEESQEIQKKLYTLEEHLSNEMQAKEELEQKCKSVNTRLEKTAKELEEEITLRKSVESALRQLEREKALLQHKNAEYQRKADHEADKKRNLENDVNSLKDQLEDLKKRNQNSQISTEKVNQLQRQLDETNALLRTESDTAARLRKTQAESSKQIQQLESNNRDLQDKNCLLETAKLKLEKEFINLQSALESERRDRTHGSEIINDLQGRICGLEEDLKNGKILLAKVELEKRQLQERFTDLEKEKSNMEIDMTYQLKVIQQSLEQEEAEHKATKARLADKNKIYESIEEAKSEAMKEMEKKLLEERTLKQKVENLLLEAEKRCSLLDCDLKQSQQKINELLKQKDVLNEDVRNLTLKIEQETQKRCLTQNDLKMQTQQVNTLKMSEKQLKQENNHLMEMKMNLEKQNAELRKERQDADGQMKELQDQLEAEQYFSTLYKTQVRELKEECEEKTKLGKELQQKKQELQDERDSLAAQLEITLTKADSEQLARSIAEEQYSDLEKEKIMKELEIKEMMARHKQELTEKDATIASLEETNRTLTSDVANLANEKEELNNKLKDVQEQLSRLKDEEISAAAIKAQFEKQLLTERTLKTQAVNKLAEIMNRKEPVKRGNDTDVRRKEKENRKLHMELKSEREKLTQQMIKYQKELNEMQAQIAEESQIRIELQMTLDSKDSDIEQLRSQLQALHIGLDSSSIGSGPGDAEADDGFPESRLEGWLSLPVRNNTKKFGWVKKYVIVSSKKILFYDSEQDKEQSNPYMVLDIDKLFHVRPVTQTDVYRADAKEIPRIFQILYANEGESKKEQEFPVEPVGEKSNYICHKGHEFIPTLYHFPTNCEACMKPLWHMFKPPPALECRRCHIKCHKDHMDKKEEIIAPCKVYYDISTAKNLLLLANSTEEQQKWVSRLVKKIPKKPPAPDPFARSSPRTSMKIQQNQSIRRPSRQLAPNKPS

The assay has as its target Rho-associated protein kinase 2 (Homo sapiens) (UniProt O75116). Description: blockers of Rho kinase 2 activity – biochemical, Kinase-Glo luminescence, S6 peptide, 384-well, dose response (AID 791). To be noted: recombinant ROCK2, S6 peptide. (Kinase-Glo measures the ATP left after a reaction by luminescence.)
By IC50 is commonly meant the concentration that inhibits the measured activity by half. Take `NC(C(=O)N1CCN(c2ccc3[nH]ncc3c2)CC1)c1ccc(Br)cc1` (stereo not drawn): the IC50 is 8.97 nM.

As for `N[C@H](C(=O)N1CCC(Nc2ccc3[nH]ncc3c2)CC1)c1ccccc1`, the half-inhibitory concentration (IC50) was 835 nM.

For `C[C@@H](N)C(=O)N1CCN(c2ccc3[nH]ncc3c2)CC1`, the IC50 is > 10600 nM (inactive). Next, `CC(C)[C@@H](O)C(=O)N1CCN(c2ccc3[nH]ncc3c2)CC1`: 3910 nM; `N[C@@H](C(=O)N1CCN(c2ccc3[nH]ncc3c2)CC1)c1ccccc1`: 1400 nM. Next, `NC(C(=O)N1CCC(Nc2ccc3[nH]ncc3c2)CC1)c1ccc(Br)cc1` (stereo not drawn): 1.26 nM; `O=C(C(O)c1ccc(Br)cc1)N1CCN(c2ccc3[nH]ncc3c2)CC1` (stereo not drawn): 7.86 nM. Then `N[C@H](Cc1ccccc1)C(=O)N1CCN(c2ccc3[nH]ncc3c2)CC1`, with 379 nM. Regarding `O=C(C(O)c1ccc(Br)cc1)N1CCC(Nc2ccc3[nH]ncc3c2)CC1` (stereo not drawn), the IC50 is 8.87 nM. Turning to `O=C([C@H](O)c1ccccc1Cl)N1CCN(c2ccc3[nH]ncc3c2)CC1`, the IC50 was 1200 nM. Next, `O=C([C@@H]1Cc2ccccc2CN1)N1CCN(c2ccc3[nH]ncc3c2)CC1`: 5320 nM. Next, `C[C@H](N)C(=O)N1CCC(Nc2ccc3[nH]ncc3c2)CC1`: 5740 nM; `NC(C(=O)N1CCC(Nc2ccc3[nH]ncc3c2)CC1)c1cccc(Cl)c1` (stereo not drawn): 148 nM. On to `O=C([C@H](O)c1ccccc1)N1CCC(Nc2ccc3[nH]ncc3c2)CC1`, for which the IC50 is 774 nM.

Regarding `O=C([C@H](O)c1ccccc1)N1CCN(c2ccc3[nH]ncc3c2)CC1`, the IC50 was 855 nM.

Turning to `O=C([C@@H](O)c1ccccc1Cl)N1CCC(Nc2ccc3[nH]ncc3c2)CC1`, the IC50 is 1700 nM. Then `C[C@H](O)C(=O)N1CCC(Nc2ccc3[nH]ncc3c2)CC1`, with > 10000 nM (inactive); and `NC(C(=O)N1CCN(c2ccc3[nH]ncc3c2)CC1)c1cccc(Cl)c1` (stereo not drawn), with 756 nM. Next, `NC(C(=O)N1CCN(c2ccc3[nH]ncc3c2)CC1)c1ccc(Cl)cc1` (stereo not drawn): 188 nM. Then `O=C([C@H](O)c1cccc(Cl)c1)N1CCC(Nc2ccc3[nH]ncc3c2)CC1`, with 350 nM; and `O=C(C(O)c1ccc(Cl)cc1)N1CCN(c2ccc3[nH]ncc3c2)CC1` (stereo not drawn), with 186 nM.

For `N[C@@H](Cc1ccccc1)C(=O)N1CCC(Nc2ccc3[nH]ncc3c2)CC1`, the IC50 is 468 nM.

`O=C([C@H](O)c1cccc(Cl)c1)N1CCN(c2ccc3[nH]ncc3c2)CC1`: the IC50 is 1050 nM.
